Measurements taken from BindingDB's records for patent US10975056 (Glaxosmithkline Intellectual Property Development, 2021).

Molecular target: DNA (cytosine-5)-methyltransferase 1 (Homo sapiens, UniProt P26358)
Assay: Biochemical Activity Assay
Protocol: Biochemical activity of DNMT1 analyzed using SPA technology. […] Low control wells contained 5 μL of buffer instead of enzyme. Following a 40 minute incubation, the reaction was quenched upon the addition of 10 μL of stop mixture containing 1 mM SAM (Sigma A7007) and 2 mg/mL PEI beads (Perkin Elmer RPNQ0098).

DNA (cytosine-5)-methyltransferase 1, sequence (P26358 whole entry): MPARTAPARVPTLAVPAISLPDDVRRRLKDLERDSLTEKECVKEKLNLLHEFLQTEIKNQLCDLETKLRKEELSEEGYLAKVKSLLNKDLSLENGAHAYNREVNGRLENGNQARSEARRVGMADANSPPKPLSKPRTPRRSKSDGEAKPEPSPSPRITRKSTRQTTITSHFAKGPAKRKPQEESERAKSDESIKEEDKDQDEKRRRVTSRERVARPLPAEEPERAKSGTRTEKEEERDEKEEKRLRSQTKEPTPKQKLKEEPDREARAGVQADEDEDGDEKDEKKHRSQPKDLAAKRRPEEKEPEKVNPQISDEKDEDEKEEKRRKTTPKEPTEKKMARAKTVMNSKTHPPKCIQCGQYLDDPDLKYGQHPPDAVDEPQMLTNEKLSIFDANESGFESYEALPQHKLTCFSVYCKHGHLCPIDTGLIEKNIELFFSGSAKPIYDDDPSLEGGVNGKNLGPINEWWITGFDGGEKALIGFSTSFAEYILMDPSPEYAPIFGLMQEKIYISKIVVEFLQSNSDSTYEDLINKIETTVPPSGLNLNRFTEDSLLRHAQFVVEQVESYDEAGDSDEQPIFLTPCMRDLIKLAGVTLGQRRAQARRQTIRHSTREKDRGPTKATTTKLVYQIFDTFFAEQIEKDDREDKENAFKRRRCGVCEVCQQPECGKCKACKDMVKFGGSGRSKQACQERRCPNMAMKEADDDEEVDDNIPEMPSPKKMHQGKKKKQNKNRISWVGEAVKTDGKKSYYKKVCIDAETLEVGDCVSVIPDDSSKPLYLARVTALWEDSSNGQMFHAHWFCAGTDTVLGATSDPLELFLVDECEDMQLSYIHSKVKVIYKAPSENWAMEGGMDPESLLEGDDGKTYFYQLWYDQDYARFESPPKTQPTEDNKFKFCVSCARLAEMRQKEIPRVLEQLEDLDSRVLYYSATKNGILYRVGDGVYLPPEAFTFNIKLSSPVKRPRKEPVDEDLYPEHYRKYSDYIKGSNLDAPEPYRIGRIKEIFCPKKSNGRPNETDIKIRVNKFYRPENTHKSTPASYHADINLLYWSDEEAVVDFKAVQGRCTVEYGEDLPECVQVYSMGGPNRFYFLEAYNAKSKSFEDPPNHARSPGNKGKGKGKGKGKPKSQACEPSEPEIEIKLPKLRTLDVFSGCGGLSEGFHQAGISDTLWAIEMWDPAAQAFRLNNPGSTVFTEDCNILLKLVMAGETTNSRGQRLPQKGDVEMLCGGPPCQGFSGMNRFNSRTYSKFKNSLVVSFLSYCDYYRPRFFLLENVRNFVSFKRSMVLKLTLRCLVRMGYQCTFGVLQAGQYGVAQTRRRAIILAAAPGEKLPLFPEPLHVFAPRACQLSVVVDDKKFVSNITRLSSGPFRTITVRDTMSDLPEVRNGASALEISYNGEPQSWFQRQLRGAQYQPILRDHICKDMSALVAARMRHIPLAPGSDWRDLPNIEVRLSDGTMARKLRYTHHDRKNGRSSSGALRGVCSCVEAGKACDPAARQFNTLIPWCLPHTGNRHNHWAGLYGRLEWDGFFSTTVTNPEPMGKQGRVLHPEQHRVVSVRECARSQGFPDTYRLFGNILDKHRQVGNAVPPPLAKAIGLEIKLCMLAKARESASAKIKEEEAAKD

IC50 [nM] | SMILES
< 320 | CCc1c(C#N)c(SC(C(N)=O)c2ccccc2)nc(N2CCC(N3[C@H](C)CC[C@H]3C)CC2)c1C#N (some centres undefined) [US10975056, Example 472]
< 320 | CCc1c(C#N)c(SC(C(N)=O)c2ccccc2)nc(N2CCC(NCC3(C)CCC3)CC2)c1C#N (centres undefined) [US10975056, Example 466]
< 320 | CCc1c(C#N)c(SCc2ccc(S(N)(=O)=O)cc2)nc(N2CCCN(C)CC2)c1C#N [US10975056, Example 76]
< 320 | CCc1c(C#N)c(SC(C(N)=O)c2ccccc2)nc(N(C)CC(=O)N2CC[C@@H](CO)C2)c1C#N (some centres undefined) [US10975056, Example 652]
